# Source: patent US20250090437A1, “COSMETIC COMPOUNDING AGENT, COSMETIC AND PRODUCTION METHOD THEREOF” (MIYOSHI OIL & FAT CO., LTD., priority 2019, published 2025)
# Tests used:
# [1] = Stability of ascorbic acid-based compound (coloration); assay type: physicochemical; set-up: key to Appearance (Visual evaluation) Immediately after preparatiom / Appearance (Visual evaluation) After 7 days 50° C. / Appearance (Visual evaluation) After 7 days Room temperature: ⊚: Colorless and transparent; ∘: Light yellow; Δ: Yellow; x: Brown to black; settings: 33 wt % aqueous solution
# Protocol: With regard to a 33 wt/% aqueous solution of each of the compounds C46, C49 and C98 to C100 and water, a stability in an aqueous solution condition was visually evaluated. An evaluation method was such that there was prepared a 33 wt % aqueous solution of each of the compounds C46, C49 and C98 to C100, the aqueous solution was then left to stand still at room temperature or in a thermostatic bath of 50° C. for seven days; coloration before and after the still standing was visually confirmed. The evaluation criteria were as follows. • ⊚: Colorless and transparent • ∘: Light yellow • Δ: Yellow • x: Brown to black
# [2] = Sensory evaluation on healthy hair after using organic ammonium salt; set-up: species or system human; key to When washing: Finger-combing capability: ⊚: Superior; ∘: Favorable; Δ: No change; x: Inferior; settings: healthy hair, 80 wt % aqueous solution
# Protocol: (§1) Here, an 80 wt % aqueous solution(s) of each of the compounds B11, B12, B23, B26 and B27 (content in terms of anhydride in the cases of the compounds B11, B12 and B23) were prepared and used as samples. Next, one minute was spent in evenly applying 10.0 g of each sample to a bundle of the healthy hairs weighing about 10 g, using a brush; the bundle of the healthy hairs was then left for 5 min. After leaving it for 5 min, the bundle of the healthy hairs was rinsed with a hot water of 40° C. for 30 sec, and evaluated was a finger-combing capability at the time of performing washing. The hair bundle that had been rinsed was then dried with a towel and further subjected to air drying for a day, followed by evaluating items such as flexibility, finger-combing capability, texture, elasticity/resilience (feeling by bare hands), volume increase (visual evaluation), cohesiveness, moist feeling, surface smoothness, non-stickiness (feeling by bare hands) and gloss (visual evaluation), from the perspective of superiority or inferiority to a test hair bundle(s) uncoated with the sample.
# [3] = Sensory evaluation on damaged hair after using organic ammonium salt; set-up: species or system human; settings: damaged hair, 80 wt % aqueous solution
# Protocol: as §1, with “damaged” for “healthy”, “as” for “as flexibility, finger-combing capability, texture,”, “hands),” for “hands), volume increase (visual evaluation),”, “cohesiveness,” for “cohesiveness, moist feeling,”, “smoothness” for “smoothness, non-stickiness (feeling by bare hands)”, “non-waviness,” for “gloss (visual evaluation),”
# [4] = Water retention property and adherability with respect to healthy hair; set-up: species or system human; settings: for Compound adhesion rate / Post-test moisture rate: healthy hair immersed 60 min in 80 wt % aqueous solution; for Post-test moisture rate: after 24 hours at 40° C., pre-test 7.6%; for Post-test moisture rate / Rate of reduction in moisture: 35 to 40% RH; for Rate of reduction in moisture: 80 wt % aqueous solution, 24 hours at 40° C.
# Protocol: In the following evaluations, a human black hair produced by Beaulax Co., Ltd was used as a healthy hair. A damaged hair was prepared by repeatedly having the healthy hair permed and bleached three times.
# An 80 wt % aqueous solution of each of the compounds B1 to B26 (content in terms of anhydride in the cases of the compounds B1 to B23) was prepared, followed by using a Karl Fischer moisture meter (KF-200 by Mitsubishi Chemical Analytech Co., Ltd.) to confirm that a moisture rate was 20.0 wt %. As a healthy hair, there was used a chemically untreated healthy hair (human black hair by Beaulax Co., Ltd). The moisture rate (pre-test moisture rate A) of the hair was measured by an infrared moisture meter (by Kett Electric Laboratory).
# After immersion, the hair was taken out, and KimWipes were then used to wipe off the compound until a change in weight was no longer observed, followed by measuring the weight of the hair (post-test hair weight B). The hair from which the compound had been wiped off was then placed into a thermo-hygrostat set to 40° C. and 35 to 40% RH. A moisture rate after 24 hours (post-test moisture rate B) was then measured, followed by calculating a rate of reduction in moisture with the following formula. Likewise, instead of the 80 wt % aqueous solution, evaluation was also performed in a similar manner using only an ion-exchange water (comparative example B4).
# Further, an adhesion rate of the compound adhering to the hair was calculated with the following formula. […]
# [5] = Affinity to hair (contact angle); settings: 50 wt % aqueous solution; condition B (hair iron, 160° C.)
# [6] = Water retention property and adherability with respect to damaged hair; set-up: species or system human; settings: concentration 50 wt % (Table 11)
# Protocol: A damaged hair was prepared by the following method.
# A damaged hair was produced by performing these perm treatment and bleach treatment three times.
# [7] = Surface resistance measurement of organic ammonium salt; settings: 0.7 g applied to polyurethane artificial leather; dried, coating in solid state
# [8] = Sensory evaluation on damaged hair after using shampoo agent containing organic ammonium salt; set-up: species or system human; settings: shampoo agent containing the compound; treated 10 times
# Protocol: (§2) Next, the mixture was cooled to a temperature of 30° C. or lower, and a purified water of an evaporated amount was then added thereto so that the whole hair treatment composition would be 100% by mass, followed by uniformly mixing them so as to obtain a hair treatment composition(s). The pH level of the hair treatment composition was adjusted to pH 6.0 by adding a citric acid or sodium hydroxide.
# The damaged hair was repeatedly treated 10 times in a similar manner as 3-1; evaluated were a cohesiveness of the hair, surface smoothness of the hair and waviness of the hair after performing air drying.
# [9] = Sensory evaluation on healthy hair after using shampoo agent containing organic ammonium salt; set-up: species or system human; settings: shampoo agent containing 3.0% by mass of the compound; treated 10 times
# Protocol: as §2
# About 5 g of the healthy hair was taken and dipped into 350 ml of a seven-time dilute aqueous solution of each of the abovementioned hair treatment compositions (shampoo agents) at 35 to 40° C. so as to be washed. The healthy hair was then subjected to a rinsing treatment five times using 500 ml of a warm water of 35 to 40° C., followed by drying the same at 80° C., and then performing air drying at 25° C. Such series of treatment involving hair washing, rinsing and drying was repeated 10 times to then evaluate a cohesiveness of the hair, a moist feeling of the hair, a gloss of the hair, a surface smoothness of the hair and a non-stickiness on the surface of the hair, after performing air drying.
# [10] = Sensory evaluation on healthy hair after using conditioner containing organic ammonium salt; set-up: species or system human; settings: conditioner containing 3.0% by mass of the compound
# Protocol: Here, 4.5% by mass of a stearyl alcohol (KALCOL 8688 by Kao Corporation), 2.0% by mass of a behenyl alcohol (KALCOL 220-80 by Kao Corporation) and 0.5% by mass of a phenoxyethanol (Hisolve EPH by TOHO Chemical Industry Co., Ltd.) were mixed together and heated to 75° C. to obtain a liquid A. Further, 3.0% by mass of a behentrimonium chloride (CATINAL DC-80 by TOHO Chemical Industry Co., Ltd.), 5.0% by mass of dipropylene glycol and 3.0% by mass of each of the compounds B11, B23, B26, B27 and B28 (content in terms of anhydride in the cases of the compounds B11 and B23) were added together, followed by adding a purified water thereto, and then melting them at 80° C., thus obtaining a liquid B. The liquid B was then gradually added to the liquid A, and stirring was performed at 75° C. for 20 min. Next, the mixture was cooled to a temperature of 40° C. or lower, and a purified water of an evaporated amount was then added thereto so that the whole hair treatment composition would be 100% by mass, followed by uniformly mixing them so as to obtain a hair treatment composition(s).
# About 5 g of the healthy hair was dipped into and kept immersed in 150 g of a seven-time dilute aqueous solution of each of the abovementioned hair treatment compositions (conditioners) at 40° C. for 30 min. […] After air drying, a combing capability, cohesiveness and non-stickiness of the hair were evaluated.
structure (smiles),measurement,setting,value
"O=C1O[C@H]([C@@H](O)CO)C([O-])=C1OP(=O)([O-])[O-].[Na+].[Na+].[Na+] [Compound C100, sodium ascorbyl phosphate]",Appearance (Visual evaluation) After 7 days 50° C.,[1],Δ~x
same,Appearance (Visual evaluation) After 7 days Room temperature,[1],○~Δ
same,Appearance (Visual evaluation) Immediately after preparatiom,[1],⊚
NC(CO)(CO)CO.O=C(O)CO [Compound B12],After air drying: Cohesiveness of hair,[2],◯~Δ
same,After air drying: Elasticity/Resilience,[2],◯~Δ
same,After air drying: Finger-combing capability,[2],◯~Δ
same,After air drying: Flexibility,[2],◯~Δ
same,After air drying: Gloss of hair,[2],◯~Δ
same,After air drying: Moist feeling,[2],◯~Δ
same,After air drying: Non-stickiness of hair surface,[2],◯~Δ
same,After air drying: Smoothness of hair surface,[2],◯~Δ
same,After air drying: Texture,[2],◯~Δ
same,After air drying: Volume increase,[2],◯~Δ
same,When washing: Finger-combing capability,[2]; versus uncoated hair bundle,⊚
same,After air drying: Cohesiveness of hair,[3],◯~Δ
same,After air drying: Elasticity/Resilience,[3],◯~Δ
same,After air drying: Smoothness of hair surface,[3],◯~Δ
same,After air drying: Suppression of hair waviness,[3],◯
same,When washing: Finger-combing capability,[3],◯~Δ
same,Compound adhesion rate,[4],1.6%
same,Post-test moisture rate,[4],5.4%
same,Rate of reduction in moisture,[4]; healthy hair,29%
same,Contact angle of water droplet on treated hair,[5],infiltrated the hair
"CC(O)C(=O)O (stereo not drawn) [lactic acid, reference compound]",Hair adhesion rate,[6],1.1%
same,Hair adhesion rate,"[4]; healthy hair, concentration 50 wt % (Table 11)",1.1%
"CC(O)C(=O)[O-].[Na+] (stereo not drawn) [Compound B28, sodium lactate]",Surface resistance value,[7],2×10^8 Ω
same,"Sensory evaluation of damaged hair after shampoo agent (cohesiveness, surface smoothness, waviness)",[8],inferior surface smoothness
same,"Sensory evaluation of healthy hair after shampoo agent (cohesiveness, moist feeling, gloss, smoothness, non-stickiness)",[9],inferior in general
same,"Combing capability, cohesiveness and non-stickiness of healthy hair after conditioner",[10],poor hair cohesiveness
CC(N)(CO)CO.O=C1O[C@H]([C@@H](O)CO)C(O)=C1O [Compound B7],Compound adhesion rate,[4],2.4%
same,Post-test moisture rate,[4],6.0%
same,Rate of reduction in moisture,[4]; healthy hair,21%
same,"Sensory evaluation of healthy hair after shampoo agent (cohesiveness, moist feeling, gloss, smoothness, non-stickiness)",[9],favorable
"O=C1O[C@H]([C@@H](O)CO)C(O)=C1O[C@H]1O[C@H](CO)[C@@H](O)[C@H](O)[C@H]1O [Compound C99, ascorbic acid glucoside]",Appearance (Visual evaluation) After 7 days 50° C.,[1],Δ~x
same,Appearance (Visual evaluation) After 7 days Room temperature,[1],○
same,Appearance (Visual evaluation) Immediately after preparatiom,[1],⊚
"O=C1O[C@H]([C@@H](O)CO)C(O)=C1O [Compound C98, ascorbic acid]",Appearance (Visual evaluation) After 7 days 50° C.,[1],x
same,Appearance (Visual evaluation) After 7 days Room temperature,[1],x
same,Appearance (Visual evaluation) Immediately after preparatiom,[1],⊚
